Experimental data published in publication PMC9827845, “Active Pharmaceutical Ingredient Uptake by Zebrafish (Danio rerio) Oct2 (slc22a2) Transporter Expressed in Xenopus laevis Oocytes” (Environmental Toxicology and Chemistry, 2022).

Key:
Oct2 (slc22a2) [1] = biological target: T1, Oct2 (slc22a2) (Danio rerio, UniProt Q7T2C0); assay: inhibition of […] TEA uptake at […] in Xenopus oocytes expressing zebrafish oct2; format: cell-based
T1 construct: complete Danio rerio slc22a2 cDNA clone (zgc:64076; IRBOp991A024D; oct2)
T1 sequence (Q7T2C0 1-562): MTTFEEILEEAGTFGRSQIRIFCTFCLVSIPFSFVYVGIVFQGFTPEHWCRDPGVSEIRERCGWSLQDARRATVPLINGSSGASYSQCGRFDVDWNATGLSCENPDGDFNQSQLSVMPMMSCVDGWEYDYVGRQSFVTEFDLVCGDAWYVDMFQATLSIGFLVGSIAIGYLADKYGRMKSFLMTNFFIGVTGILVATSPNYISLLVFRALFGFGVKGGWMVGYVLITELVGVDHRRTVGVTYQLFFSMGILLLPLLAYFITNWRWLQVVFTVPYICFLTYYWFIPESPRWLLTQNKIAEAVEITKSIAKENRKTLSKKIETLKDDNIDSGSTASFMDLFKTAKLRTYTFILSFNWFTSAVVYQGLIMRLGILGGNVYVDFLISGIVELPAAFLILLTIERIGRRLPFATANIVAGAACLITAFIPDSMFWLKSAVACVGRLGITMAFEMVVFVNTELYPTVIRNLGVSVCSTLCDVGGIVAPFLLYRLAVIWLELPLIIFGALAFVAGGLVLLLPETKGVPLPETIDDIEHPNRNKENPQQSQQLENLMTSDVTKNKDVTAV

Oct2 (slc22a2) [2] = biological target: T1, Oct2 (slc22a2); assay: radiolabelled uptake in Xenopus oocytes expressing zebrafish oct2 versus sham; format: cell-based
[3] = substrate: CNC(=C[N+](=O)[O-])NCCSCc1ccc(CN(C)C)o1; assay: cells, lysate or membranes
[4] = substrate: CC(C)NCC(O)COc1cccc2ccccc12; assay: cells, lysate or membranes

## NC12CC3CC(CC(C3)C1)C2 [amantadine]
Oct2 (slc22a2) [1]
  inhibition of 200 μM TEA uptake at 2 mM in Xenopus oocytes expressing zebrafish: Uptake of tetraethylammonium (TEA) was inhibited by propranolol, amantadine, and cimetidine

## CC[N+](CC)(CC)CC [TEA, tetraethylammonium]
Oct2 (slc22a2) [2]
  radiolabelled uptake in Xenopus oocytes expressing zebrafish oct2 versus sham: zebrafish oct2 when expressed in Xenopus oocytes can facilitate the transport of ranitidine, propranolol, and TEA

B1: Oct2 (slc22a2) (Danio rerio) (protein)
chain: MTTFEEILEEAGTFGRSQIRIFCTFCLVSIPFSFVYVGIVFQGFTPEHWCRDPGVSEIRERCGWSLQDARRATVPLINGSSGASYSQCGRFDVDWNATGLSCENPDGDFNQSQLSVMPMMSCVDGWEYDYVGRQSFVTEFDLVCGDAWYVDMFQATLSIGFLVGSIAIGYLADKYGRMKSFLMTNFFIGVTGILVATSPNYISLLVFRALFGFGVKGGWMVGYVLITELVGVDHRRTVGVTYQLFFSMGILLLPLLAYFITNWRWLQVVFTVPYICFLTYYWFIPESPRWLLTQNKIAEAVEITKSIAKENRKTLSKKIETLKDDNIDSGSTASFMDLFKTAKLRTYTFILSFNWFTSAVVYQGLIMRLGILGGNVYVDFLISGIVELPAAFLILLTIERIGRRLPFATANIVAGAACLITAFIPDSMFWLKSAVACVGRLGITMAFEMVVFVNTELYPTVIRNLGVSVCSTLCDVGGIVAPFLLYRLAVIWLELPLIIFGALAFVAGGLVLLLPETKGVPLPETIDDIEHPNRNKENPQQSQQLENLMTSDVTKNKDVTAV
[3]
  Km: 246.1 µM
[4]
  Km: 408.9 µM
